Reference: US8383637B2, “2-amino-quinazoline derivatives useful as inhibitors of β-secretase (BACE)” (Jansssen Pharmaceutica N.V., priority 2004, dated 2013)

Legend:
Format in all cases: biochemical
β-secretase(BACE) [1] = molecular target: T1, β-secretase(BACE) (Homo sapiens, UniProt P56817); experiment: BACE Assay-1 (MCA-substrate, IC50); conditions: procedure of Example 158; read-out: IC50 μM (158)
T1 construct: purchased Panvera
Protocol: The following standards are reagents were used in this assay: Sodium Citrate trisodium salt dihydrate (Sigma), Citric Acid monohydrate (Merck), PEG8000 (Sigma), MCA-substrate (Bachem), β-secretase (BACE) (Panvera), 96-well plate zwart (Costar (Elscolab)), StatVal (Bachem).
The following standard assay buffer solution was prepared and used in this assay: 0.05 M, pH 5.0 mixture of sodium citrate trisodium salt dihydrate (9.56 g), citric acid monohydrate (3.68 g) and PEG8000 (0.50 g).
The MCA-substrate stock solution was prepared by mixing 10 mg MCA-substrate with 5 mL DMSO for a final solution concentration of 2.0 mg/mL. The substrate work solution was prepared by mixing 0.1 mL substrate in 1.90 mL assay buffer for a final concentration of 0.05 mM. The β-secretase (BACE) work solution was prepared by mixing 8 μL BACE in 2 mL assay buffer for a final concentration of 10 μg/mL.
The screen procedure for this assay was as follows. 60 μL of assay buffer was pippeted into each well of a 96-well plate. To each well was then pipetted 1 μL of test compound at the selected concentration. To each well was then added 20 μL of the β-secretase work solution and 20 μL of the MCA-substrate stock solution.
The procedure for the blank was as follows. 80 μL of assay buffer was pipetted into each well to be used as a blank control. To each well was then added 1 μL of DMSO and 20 μL of MCA-substrate solution in each well.
The procedure for the positive control was as follows. 60 μL of assay buffer was pipetted into each well to be used as a positive control. To each well was then added 1 μL of DMSO, 20 μL of BACE work solution and 20 μL of MCA-substrate stock solution.
For test compounds, measured at multiple concentrations, the measured T0 and T60 values were used to calculate an IC50 value using Graphpad Software (or PIR).

β-secretase(BACE) [2] = molecular target: T1, β-secretase(BACE); experiment: BACE FS1% Inhibition Assay; conditions: FS1 substrate, read-out: % Inhibition (FS); for inhibition at 0.3 µM: 0.3 μM test compound; for inhibition at 1 µM: 1 μM test compound; for inhibition at 3 µM: 3 μM test compound
In short: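 Human BACE (4 μg/mL working solution) preincubated 20 min at room temperature with compound, then FS1 substrate (300 μg/mL working solution) added and incubated 1 h at room temperature. Percent inhibition calculated at each compound concentration against blank and vehicle controls.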

β-secretase(BACE) [3] = molecular target: T1, β-secretase(BACE); experiment: BACE Assay-2 (FS1 substrate, IC50 and Ki); conditions: procedure of Example 159, FS1 substrate; read-out: Ki μM (159)

T1 sequence (P56817 46-501): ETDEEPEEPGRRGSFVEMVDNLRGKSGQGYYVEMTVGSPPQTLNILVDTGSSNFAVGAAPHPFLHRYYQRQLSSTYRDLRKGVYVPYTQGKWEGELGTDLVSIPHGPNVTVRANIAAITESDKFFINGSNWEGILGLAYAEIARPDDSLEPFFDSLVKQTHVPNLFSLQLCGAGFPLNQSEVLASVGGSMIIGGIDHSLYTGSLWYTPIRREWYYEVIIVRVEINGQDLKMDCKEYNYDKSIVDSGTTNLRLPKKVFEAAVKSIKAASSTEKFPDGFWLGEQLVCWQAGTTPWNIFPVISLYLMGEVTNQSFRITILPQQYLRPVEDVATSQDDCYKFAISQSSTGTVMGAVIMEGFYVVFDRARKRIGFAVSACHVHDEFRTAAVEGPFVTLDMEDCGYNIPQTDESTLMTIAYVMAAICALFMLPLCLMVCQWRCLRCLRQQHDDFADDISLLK

Compound | IC50 (β-secretase(BACE) [1]) | inhibition at 0.3 µM (β-secretase(BACE) [2]) | inhibition at 1 µM (β-secretase(BACE) [2]) | inhibition at 3 µM (β-secretase(BACE) [2]) | Ki (β-secretase(BACE) [3])
CN(C(=O)CCN1Cc2cc(C(=O)c3ccc(F)cc3)ccc2N=C1N)C1CCCCC1 [Compound 2] | 26 µM | – | – | – | –
CCN(C(=O)CCN1Cc2cc(C(=O)c3ccccc3)ccc2N=C1N)C1CCCCC1 [Compound 3] | 4 µM | – | – | – | –
CN(C(=O)CCN1Cc2cc(C(=O)c3ccccc3)ccc2N=C1N)C1CCCCCC1 [Compound 4] | 2.5 µM | – | – | – | –
CN(C(=O)CCN1Cc2cc(C(=O)c3ccc(F)cc3)ccc2N=C1N)C1CCCCCC1 [Compound 5] | 5.1 µM | – | – | – | –
CCN(C(=O)CCN1Cc2cc(C(=O)c3ccc(F)cc3)ccc2N=C1N)C1CCCCC1 [Compound 6] | 9.1 µM | – | – | – | –
CN(C(=O)CCN1Cc2cc(C(=O)c3ccccc3)ccc2N=C1N)c1ccccc1 [Compound 13] | 16 µM | – | – | – | –
COCCN1Cc2cc(C(=O)c3ccccc3)ccc2N=C1N [Compound 18] | 91 µM | – | – | – | –
CC(C)N(C)C(=O)CCN1Cc2cc(C(=O)c3ccccc3)ccc2N=C1N [Compound 22] | 12 µM | – | – | – | –
CN(C(=O)CCN1Cc2cc(C(=O)c3ccccc3)ccc2N=C1N)C1CCCC1 [Compound 24] | 1.8 µM | – | – | – | –
CN(C(=O)CCN1Cc2cc(C(=O)c3ccc(F)cc3)ccc2N=C1N)C1CCCC1 [Compound 25] | 5.5 µM | – | – | – | –
NC1=Nc2ccc(C(=O)c3ccccc3)cc2CN1CCCCC(=O)NC1CCCCC1 [Compound 31] | 2.3 µM | – | – | – | –
CN(C(=O)CCN1Cc2cc(C(O)c3ccccc3)ccc2N=C1N)C1CCCCC1 (centres unmarked) [Compound 32, 3-[2-Amino-6-(hydroxy-phenyl-methyl)-4H-quinazolin-3-yl]-N-cyclohexyl-N-methyl-propionamide] | 14 µM | – | – | – | –
CN(C(=O)CCN1Cc2ccc(C(=O)c3ccccc3)cc2N=C1N)C1CCCCC1 [Compound 35] | 33 µM | – | – | – | –
CN(C(=O)CCN1Cc2cc(Cc3ccccc3)ccc2N=C1N)C1CCCCC1 [Compound 36, 3-(2-Amino-6-benzyl-4H-quinazolin-3-yl)-N-cyclohexyl-N-methyl-propionamide] | 2.3 µM | – | – | – | –
CN(C(=O)CCN1Cc2cc(-c3noc4cc(F)ccc34)ccc2N=C1N)C1CCCCC1 [Compound 37] | 12 µM | – | – | – | –
NC1=Nc2ccc(C(=O)c3ccccc3)cc2CN1CCC(=O)N(C1CCCCC1)C1CCCCC1 [Compound 39] | 1.3 µM | – | – | – | –
CN(CCc1ccccc1)C(=O)CCN1Cc2cc(C(=O)c3ccccc3)ccc2N=C1N [Compound 40] | 9.8 µM | – | – | – | –
CN(C(=O)CCN1Cc2cc(C(=O)c3ccccc3)ccc2N=C1N)C12CC3CC(CC(C3)C1)C2 [Compound 41] | 5.1 µM | – | – | – | –
CN(Cc1cccc2ccccc12)C(=O)CCN1Cc2cc(C(=O)c3ccccc3)ccc2N=C1N [Compound 42] | 15 µM | – | – | – | –

Compound | IC50 (β-secretase(BACE) [1]) | inhibition at 0.3 µM (β-secretase(BACE) [2]) | inhibition at 1 µM (β-secretase(BACE) [2]) | inhibition at 3 µM (β-secretase(BACE) [2]) | Ki (β-secretase(BACE) [3])
CN(Cc1ccccc1)C(=O)CCN1Cc2cc(C(=O)c3ccccc3)ccc2N=C1N [Compound 43] | 7.2 µM | – | – | – | –
CN(C(=O)CCN1Cc2cc(C(=O)c3ccccc3)ccc2N=C1N)C1CCCc2ccccc21 (centres unmarked) [Compound 45] | 2.7 µM | – | – | – | –
NC1=Nc2ccc(Oc3ccccc3)cc2CN1[C@@H](CCC(=O)N(CCOCc1ccccc1)[C@H]1CC[C@@H](C(=O)O)CC1)C1CCOCC1 [Compound 751, (S)-enantiomer of 4-[[4-(2-Amino-6-phenoxy-4H-quinazolin-3-yl)-4-(tetrahydro-pyran-4-yl)-butyryl]-(2-benzyloxy-ethyl)-amino]-cyclohexanecarboxylic acid] | – | 112% | 112% | 116% | 0.025 µM
CN(C(=O)CC[C@@H](C1CCCCC1)N1Cc2c(cccc2Oc2ccccc2)N=C1N)C1CCCCC1 [Compound 753] | – | 13% | 47% | 93% | 0.656 µM
COC(=O)[C@H]1CC[C@@H](N(C)C(=O)CC[C@@H](C2CCCCC2)N2Cc3cc(Oc4ccccc4)ccc3N=C2N)CC1 [Compound 761] | – | 51% | 91% | 112% | 0.175 µM
COC(=O)[C@H]1CC[C@@H](N(CCO)C(=O)CC[C@@H](C2CCCCC2)N2Cc3cc(Oc4ccccc4)ccc3N=C2N)CC1 [Compound 762] | – | 74% | 102% | 113% | 0.111 µM
CN(C(=O)CC[C@@H](C1CCCCC1)N1Cc2cc(Oc3ccccc3)ccc2N=C1N)[C@H]1CC[C@@H](C(N)=O)CC1 [Compound 764, 4-{[4-(2-Amino-6-phenoxy-4H-quinazolin-3-yl)-4S-cyclohexyl-butyryl]-methyl-amino}-S,R-cyclohexanecarboxylic acid amide] | – | 87% | 110% | 116% | 0.061 µM
NC1=Nc2ccc(Oc3ccccc3)cc2CN1[C@@H](CCC(=O)N(CC(=O)O)C1CCCCC1)C1CCCCC1 [Compound 768, {[4-(2-Amino-6-phenoxy-4H-quinazolin-3-yl)-4S-cyclohexyl-butyryl]-cyclohexyl-amino}-acetic acid] | – | 122% | 120% | 126% | 0.013 µM
NC1=Nc2ccc(Oc3ccccc3)cc2CN1[C@@H](CCC(=O)N[C@@H](CO)C(=O)O)C1CCOCC1 [Compound 771] | – | 46% | 79% | 105% | 0.173 µM
NC1=Nc2ccc(Oc3ccccc3)cc2CN1[C@@H](CCC(=O)N[C@H](CO)C(=O)O)C1CCOCC1 [Compound 773, 2-[4-(2-Amino-6-phenoxy-4H-quinazolin-3-yl)-4S-(tetrahydro-pyran-4-yl)-butyrylamino]-3R-hydroxy-propionic acid] | – | 102% | 111% | 119% | 0.028 µM
CC(C)(C)OC[C@@H](NC(=O)CC[C@@H](C1CCOCC1)N1Cc2cc(Oc3ccccc3)ccc2N=C1N)C(=O)O [Compound 774, 2-[4-(2-Amino-6-phenoxy-4H-quinazolin-3-yl)-4S-(tetrahydro-pyran-4-yl)-butyrylamino]-3R-tert-butoxy-propionic acid] | – | 122% | 120% | 124% | 0.003 µM
CN(C(=O)CCC(C1CCCCC1)N1Cc2cc(Oc3ccccc3)ccc2N=C1N)C1CCCC(C(=O)O)C1 (centres unmarked) [Compound 776] | – | 41% | 95% | 117% | 0.107 µM
COC(=O)[C@@H](COCc1ccccc1)N(C)C(=O)CC[C@@H](C1CCCCC1)N1Cc2cc(Oc3ccccc3)ccc2N=C1N [Compound 779] | – | 102% | 107% | 120% | 0.045 µM
NC1=Nc2ccc(Oc3ccccc3)cc2CN1[C@@H](CCC(=O)N[C@@H](COCc1ccccc1)C(=O)O)C1CCOCC1 [Compound 782] | – | 104% | 107% | 113% | 0.015 µM
COC(=O)[C@@H](COCc1ccccc1)N(C)C(=O)CC[C@@H](C1CCOCC1)N1Cc2cc(Oc3ccccc3)ccc2N=C1N [Compound 783] | – | 109% | 110% | 121% | 0.301 µM
CN(C(=O)CC[C@@H](C1CCOCC1)N1Cc2cc(Oc3ccccc3)ccc2N=C1N)[C@H](COCc1ccccc1)C(=O)O [Compound 784, 2-{[4-(2-Amino-6-phenoxy-4H-quinazolin-3-yl)-4S-(tetrahydro-pyran-4-yl)-butyryl]-methyl-amino}-3R-benzyloxy-propionic acid] | – | 107% | 108% | 120% | 0.298 µM
COC(=O)[C@H](COCc1ccccc1)NC(=O)CC[C@@H](C1CCOCC1)N1Cc2cc(Oc3ccccc3)ccc2N=C1N [Compound 785] | – | 71% | 91% | 107% | 0.198 µM
COC(=O)[C@H](COCc1ccccc1)N(C)C(=O)CC[C@@H](C1CCOCC1)N1Cc2cc(Oc3ccccc3)ccc2N=C1N [Compound 786] | – | 97% | 105% | 114% | 0.101 µM
NC1=Nc2ccc(Oc3ccccc3)cc2CN1[C@@H](CCC(=O)N(Cc1nnn[nH]1)C1CCCCC1)C1CCCCC1 [Compound 787, 4-(2-Amino-6-phenoxy-4H-quinazolin-3-yl)-4S,N-dicyclohexyl-N-(1H-tetrazol-5-ylmethyl)-butyramide] | – | 108% | 109% | 121% | 0.038 µM
